Data: US8124637B2, “Anthra [1, 2-d]imidazole-6,11-dione derivatives, preparation method and application thereof” (National Defense Medical Center, priority 2010, dated 2012)

Experiments:
[1] = target: T1, telomerase (total cell lysates of lung cancer cell line H1299) (Homo sapiens, UniProt O14746); experiment: Telomere repeat amplification protocol (TRAP) assay; type: biochemical; conditions: preliminary screening at 10 μM, gel
T1 construct: As a source of telomerase, the total cell lysates derived from lung cancer cell line H1299 cells were used; endogenous in cells; host or cells: H1299 lung cancer cells (total cell lysate)
T1 sequence (O14746 whole entry): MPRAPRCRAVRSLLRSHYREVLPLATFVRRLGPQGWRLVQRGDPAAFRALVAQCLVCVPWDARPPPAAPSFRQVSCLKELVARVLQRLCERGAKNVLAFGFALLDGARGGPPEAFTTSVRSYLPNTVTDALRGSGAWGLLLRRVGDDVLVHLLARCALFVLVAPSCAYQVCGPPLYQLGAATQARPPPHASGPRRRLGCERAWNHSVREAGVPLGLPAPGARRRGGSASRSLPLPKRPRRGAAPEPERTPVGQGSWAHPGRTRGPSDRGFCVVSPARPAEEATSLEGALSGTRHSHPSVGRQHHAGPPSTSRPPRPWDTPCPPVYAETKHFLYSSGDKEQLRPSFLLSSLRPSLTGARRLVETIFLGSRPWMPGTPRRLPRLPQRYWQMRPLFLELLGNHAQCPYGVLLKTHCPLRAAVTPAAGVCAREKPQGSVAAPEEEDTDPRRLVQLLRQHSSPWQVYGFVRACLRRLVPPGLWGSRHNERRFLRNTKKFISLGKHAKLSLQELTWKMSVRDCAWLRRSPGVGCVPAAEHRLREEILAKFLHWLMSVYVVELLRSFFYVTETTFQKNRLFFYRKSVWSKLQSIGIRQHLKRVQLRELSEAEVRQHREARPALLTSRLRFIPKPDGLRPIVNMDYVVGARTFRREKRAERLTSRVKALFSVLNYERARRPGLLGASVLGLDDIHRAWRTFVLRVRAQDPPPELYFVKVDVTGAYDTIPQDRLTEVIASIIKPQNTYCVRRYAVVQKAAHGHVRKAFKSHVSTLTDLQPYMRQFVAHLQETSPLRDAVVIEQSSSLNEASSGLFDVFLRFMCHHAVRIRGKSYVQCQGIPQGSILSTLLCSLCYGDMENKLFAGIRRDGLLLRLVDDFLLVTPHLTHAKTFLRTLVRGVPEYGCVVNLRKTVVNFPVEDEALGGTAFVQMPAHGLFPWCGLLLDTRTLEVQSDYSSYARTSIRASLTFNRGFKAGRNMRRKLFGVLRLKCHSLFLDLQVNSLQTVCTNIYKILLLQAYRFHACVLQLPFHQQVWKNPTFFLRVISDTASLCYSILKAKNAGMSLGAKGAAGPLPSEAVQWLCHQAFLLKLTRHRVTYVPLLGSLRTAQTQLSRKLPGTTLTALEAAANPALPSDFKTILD
T1 sequence (O60832 whole entry partner): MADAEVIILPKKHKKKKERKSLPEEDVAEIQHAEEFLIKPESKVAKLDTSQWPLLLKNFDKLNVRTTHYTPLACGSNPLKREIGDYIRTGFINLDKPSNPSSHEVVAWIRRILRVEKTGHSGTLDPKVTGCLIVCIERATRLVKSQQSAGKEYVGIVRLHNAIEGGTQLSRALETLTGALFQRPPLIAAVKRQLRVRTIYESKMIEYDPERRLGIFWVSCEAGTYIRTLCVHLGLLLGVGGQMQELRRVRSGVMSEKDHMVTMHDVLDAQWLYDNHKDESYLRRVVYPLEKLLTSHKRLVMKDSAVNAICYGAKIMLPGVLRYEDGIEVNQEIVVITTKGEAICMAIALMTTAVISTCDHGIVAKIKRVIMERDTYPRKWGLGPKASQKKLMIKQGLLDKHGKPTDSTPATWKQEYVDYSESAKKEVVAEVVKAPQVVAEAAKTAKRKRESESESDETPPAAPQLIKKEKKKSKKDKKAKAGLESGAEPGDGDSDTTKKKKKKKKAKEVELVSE
T1 sequence (Q9NX24 whole entry partner): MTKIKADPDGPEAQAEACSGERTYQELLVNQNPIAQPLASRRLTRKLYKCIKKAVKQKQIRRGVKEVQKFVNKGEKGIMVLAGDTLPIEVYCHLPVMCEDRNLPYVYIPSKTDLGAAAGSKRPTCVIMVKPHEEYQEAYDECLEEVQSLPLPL
T1 sequence (Q9NPE3 whole entry partner): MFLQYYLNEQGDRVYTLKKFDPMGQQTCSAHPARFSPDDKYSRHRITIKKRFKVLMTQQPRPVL
T1 sequence (Q9NY12 whole entry partner): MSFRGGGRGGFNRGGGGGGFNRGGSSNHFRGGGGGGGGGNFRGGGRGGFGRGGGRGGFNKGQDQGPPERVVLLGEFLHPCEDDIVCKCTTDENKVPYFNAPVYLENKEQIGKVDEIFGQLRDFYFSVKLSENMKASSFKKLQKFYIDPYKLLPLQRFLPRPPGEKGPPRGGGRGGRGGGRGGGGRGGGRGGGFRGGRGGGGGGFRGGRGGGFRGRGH
Description: Telomerase activity was detected by a modified version of the general TRAP protocol. Telomerase products were resolved by 10% polyacrylamide gel electrophoresis and visualized by staining with SYBER Green. As a source of telomerase, the total cell lysates derived from lung cancer cell line H1299 cells were used. Protein concentration of the lysates was assayed using Bio-Rad protein assay kit using BSA standards.
In the FIGS. 3A, 3B and FIG. 4, a positive control group (P) used water that had been sterilized three times in the assay; while a negative control group (N) used RNase A (CLONTECH) (5 μL, 0.1 mg/mL) in the assay.
In the positive control group (P), due to the absence of inhibitor, the telomerase could extend the telomere, such that some longer telomere fragments could be observed; while there was not observed in the negative control group (N). In the result of TRAP assay (FIG. 3A to 3B), compounds with a concentration of 10 μM was used as the preliminary screening. In the gel, standard compound A was 1,2-diaminoanthraquinone, D was doxorubicin, and M was mitoxantrone.

UACC-257 = experiment: NCI 60-cell drug screen, one dose; type: cell-based, human; conditions: Melanoma UACC-257, 1.00E−5 Molar

Structure (SMILES) | inhibition effect/activity of telomerase (TRAP) [1] | Growth Percent (UACC-257)
CN1CCN(Cc2nc3ccc4c(c3[nH]2)C(=O)c2ccccc2C4=O)CC1 [CL24, 2-((4-methylpiperazin-1-yl)methyl)-1H-anthra[1,2-d]imidazole-6,11-dione] | more significant inhibition effect/activity of telomerase | –
O=C1c2ccccc2C(=O)c2c1ccc1nc(CN3CCN(c4ccccn4)CC3)[nH]c21 [CL28, 2-((4-(pyridin-2-yl)piperazin-1-yl)methyl)-1H-anthra[1,2-d]imidazole-6,11-dione] | – | 88.91%
